Assay results reported in patent publication US12263172B2, “Toll-like receptor agonists for use in the treatment of hepatitis b” (priority 2019, dated 2025).
“And” between values parts separate entries of the source, which are not always exact repeats. Identical values can stand only once. “Also recorded” adds a separate entry of the source. Like-named read-outs stand apart in the source and are kept apart here.

How the values were obtained:
[1] = respiratory and central nervous system safety pharmacology in rats; details: rat, in vivo
Excerpt: (§1) Exposure increased more than dose-proportionally at low doses. Variability in exposure was high. • In vitro plasma protein binding was between 79.6% and 94.2% in animals and humans. Volume of distribution after intravenous dosing was high. […] Main metabolic pathways were oxygenation, hydrogenation, dehydrogenation, dealkylation, acetylation, glucuronidation, and/or glutathione conjugation. • In rats, >80% of drug-related material was found in feces, 11% to 20% in bile, and <4% in urine. […] There were no effects on embryofetal development up to 1 mg/kg/dose in rats and 30 mg/kg/dose in rabbits.

[2] = Phase 1 single oral dose pharmacokinetics in healthy adults; type: in vivo; details: for AUC(0-t): read-out: AUC24 h
Protocol: This ongoing trial is a Phase 1 randomized, double-blind, placebo-controlled study in male and female healthy adult volunteers aged 18-55 years. All volunteers provided written, informed consent. For the SAD phase, 8-10 volunteers per cohort were randomized 6-8:2 to receive a single oral dose of either Compound 4 0.2 (N=6), 0.6 (N=6), 1.25 (N=8) or 1.8 mg (N=6) or placebo (N=2/dose group) under fasted conditions; following an ˜6-week washout period, the cohort subjects which had received 1.25 mg under fasted conditions in Cohort 4 were given the same 1.25 mg dose (N=7) under fed conditions (a standard meal consumed before dosing), in Cohort 6 (FIG. 1). Escalation of the Compound 4 dose was only permitted following a review of the safety and PK data from the previous cohort.
Following a single dose of Compound 4, intensive blood samples were collected over the first 24 hours, samples were then collected daily through Day 7, and weekly samples were collected through Day 35. Plasma concentrations of Compound 4 were evaluated using a validated liquid chromatography with tandem mass spectrometry method; the lower limit of quantification was 1 pg/mL. PK parameters were estimated using non-compartmental analysis (WinNonlin®, Certara, Princeton, NJ, USA). Descriptive statistics were used to summarize plasma concentrations and derived PK parameters of Compound 4. The impact of food on PK parameters was analyzed using geometric least square mean point estimates (mixed-effects model on log-transformed values with treatment as fixed effect and subject as a random effect).

[3] = test system: human whole blood cells; assay: cytokine release in vitro in whole blood cells; type: cell-based
Excerpt: as §1
LEC for Compound 4-induced cytokine release in vitro was determined to be 2 nM.

[4] = 6-month toxicity study in Cynomolgus monkeys; details: cynomolgus monkey, in vivo
Excerpt: as §1

[5] = molecular target: CYP3A4 (Homo sapiens, UniProt P08684); assay: CYP3A4 substrate and inhibition; type: in vitro ADME
Sequence of CYP3A4 (P08684 whole entry): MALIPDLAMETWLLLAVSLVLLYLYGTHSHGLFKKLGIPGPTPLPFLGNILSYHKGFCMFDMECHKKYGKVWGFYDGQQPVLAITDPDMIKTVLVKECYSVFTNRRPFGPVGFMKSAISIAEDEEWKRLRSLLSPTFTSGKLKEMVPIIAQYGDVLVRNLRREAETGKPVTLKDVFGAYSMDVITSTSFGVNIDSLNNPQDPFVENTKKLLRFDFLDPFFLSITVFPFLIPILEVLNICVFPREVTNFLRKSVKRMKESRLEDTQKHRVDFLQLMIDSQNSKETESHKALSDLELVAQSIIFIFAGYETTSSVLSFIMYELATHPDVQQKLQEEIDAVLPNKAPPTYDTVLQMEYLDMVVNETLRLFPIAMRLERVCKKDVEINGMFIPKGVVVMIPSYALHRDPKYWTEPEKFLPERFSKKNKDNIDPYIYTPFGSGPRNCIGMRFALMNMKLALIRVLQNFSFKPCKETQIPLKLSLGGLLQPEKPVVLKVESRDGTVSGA
Excerpt: as §1

[6] = molecular target: T1, human TLR7 (Homo sapiens, UniProt Q9NYK1); assay: activation of human TLR7 (LEC); type: cell-based
T1 sequence (Q9NYK1 27-1049): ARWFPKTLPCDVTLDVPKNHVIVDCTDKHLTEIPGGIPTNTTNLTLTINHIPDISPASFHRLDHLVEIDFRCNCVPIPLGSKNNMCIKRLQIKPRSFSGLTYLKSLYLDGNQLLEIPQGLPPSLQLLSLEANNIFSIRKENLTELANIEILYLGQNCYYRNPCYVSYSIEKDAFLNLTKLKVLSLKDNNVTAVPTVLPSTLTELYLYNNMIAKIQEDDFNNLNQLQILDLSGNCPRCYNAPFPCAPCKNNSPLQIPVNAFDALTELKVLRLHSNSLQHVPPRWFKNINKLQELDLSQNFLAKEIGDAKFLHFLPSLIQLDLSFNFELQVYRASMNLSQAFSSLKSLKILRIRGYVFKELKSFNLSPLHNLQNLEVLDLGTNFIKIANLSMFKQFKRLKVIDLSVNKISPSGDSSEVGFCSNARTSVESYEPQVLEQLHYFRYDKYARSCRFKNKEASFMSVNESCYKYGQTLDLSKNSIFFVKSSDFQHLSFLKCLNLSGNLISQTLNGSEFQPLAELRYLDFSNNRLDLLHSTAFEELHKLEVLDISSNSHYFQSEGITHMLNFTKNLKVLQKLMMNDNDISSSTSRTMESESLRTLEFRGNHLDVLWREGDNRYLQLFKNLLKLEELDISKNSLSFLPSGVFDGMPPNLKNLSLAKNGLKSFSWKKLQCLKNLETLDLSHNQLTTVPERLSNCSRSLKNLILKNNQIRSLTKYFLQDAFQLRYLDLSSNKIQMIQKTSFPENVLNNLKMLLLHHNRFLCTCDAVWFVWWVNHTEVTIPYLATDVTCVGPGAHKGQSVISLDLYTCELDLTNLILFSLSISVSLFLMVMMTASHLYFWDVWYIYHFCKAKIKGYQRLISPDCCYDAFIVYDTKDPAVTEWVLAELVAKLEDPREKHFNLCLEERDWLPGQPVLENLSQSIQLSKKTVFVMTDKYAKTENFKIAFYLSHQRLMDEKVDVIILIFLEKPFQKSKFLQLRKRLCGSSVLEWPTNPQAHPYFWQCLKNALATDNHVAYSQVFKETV

[7] = pharmacokinetics and excretion in rat; type: in vivo
Excerpt: as §1

[8] = pharmacokinetics in monkey; details: in vivo, po
Excerpt: as §1

[9] = embryofetal development in rabbits; type: in vivo
Excerpt: as §1

[10] = molecular target: P-glycoprotein (Homo sapiens, UniProt P08183); assay: in vitro permeability and P-glycoprotein substrate; type: in vitro ADME
Sequence of P-glycoprotein (P08183 whole entry): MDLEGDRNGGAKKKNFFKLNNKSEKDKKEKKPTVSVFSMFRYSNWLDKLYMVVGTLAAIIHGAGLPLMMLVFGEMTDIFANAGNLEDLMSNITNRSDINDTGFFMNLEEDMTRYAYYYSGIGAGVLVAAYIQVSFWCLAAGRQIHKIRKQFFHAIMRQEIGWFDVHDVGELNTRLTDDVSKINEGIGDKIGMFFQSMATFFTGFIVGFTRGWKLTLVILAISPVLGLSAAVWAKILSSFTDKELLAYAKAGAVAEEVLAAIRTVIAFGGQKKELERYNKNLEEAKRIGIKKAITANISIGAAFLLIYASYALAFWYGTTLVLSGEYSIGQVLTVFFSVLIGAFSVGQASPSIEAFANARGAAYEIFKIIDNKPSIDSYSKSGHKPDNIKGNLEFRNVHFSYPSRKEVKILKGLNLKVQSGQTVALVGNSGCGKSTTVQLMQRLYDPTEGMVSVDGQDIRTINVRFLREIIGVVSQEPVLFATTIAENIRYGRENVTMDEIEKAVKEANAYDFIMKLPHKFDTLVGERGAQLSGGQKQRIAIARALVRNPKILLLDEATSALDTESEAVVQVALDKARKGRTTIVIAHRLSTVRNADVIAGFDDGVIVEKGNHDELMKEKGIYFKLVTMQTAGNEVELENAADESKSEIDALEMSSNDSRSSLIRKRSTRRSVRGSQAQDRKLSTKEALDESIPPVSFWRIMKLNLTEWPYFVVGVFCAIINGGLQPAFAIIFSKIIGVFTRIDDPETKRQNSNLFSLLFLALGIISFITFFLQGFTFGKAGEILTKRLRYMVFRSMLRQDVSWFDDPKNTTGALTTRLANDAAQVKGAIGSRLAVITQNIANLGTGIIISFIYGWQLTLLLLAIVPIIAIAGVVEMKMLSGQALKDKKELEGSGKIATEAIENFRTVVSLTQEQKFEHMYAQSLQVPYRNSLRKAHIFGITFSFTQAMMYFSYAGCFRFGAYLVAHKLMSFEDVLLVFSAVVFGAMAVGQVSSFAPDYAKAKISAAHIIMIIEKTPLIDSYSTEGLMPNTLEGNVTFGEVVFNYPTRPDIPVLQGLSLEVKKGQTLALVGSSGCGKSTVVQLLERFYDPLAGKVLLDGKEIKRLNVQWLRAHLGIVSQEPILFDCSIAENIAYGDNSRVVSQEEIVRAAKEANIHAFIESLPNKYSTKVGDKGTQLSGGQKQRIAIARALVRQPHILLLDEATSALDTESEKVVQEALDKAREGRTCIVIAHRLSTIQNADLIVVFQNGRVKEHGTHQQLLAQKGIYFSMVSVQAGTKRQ
Excerpt: as §1

[11] = in vitro permeability and P-glycoprotein substrate; type: in vitro ADME
Excerpt: as §1

[12] = both sexes, human, plasma, oral, 0.2 mg, single dose 0.2 mg fasted, mean ± SD
[13] = both sexes, human, plasma, oral, 0.6 mg, single dose 0.6 mg fasted, mean ± SD
[14] = both sexes, human, plasma, oral, 1.25 mg, single dose 1.25 mg fasted, mean ± SD
[15] = both sexes, human, plasma, oral, 1.25 mg, single dose 1.25 mg fed, mean ± SD
[16] = both sexes, human, plasma, oral, 1.8 mg, single dose 1.8 mg fasted, mean ± SD

For CCCCOc1nc(N)c2[nH]cc(Cc3ccc(CN4CCCC4)cc3)c2n1 [Compound 4], the “effects on respiratory or central nervous system parameters” value [1] was “no relevant effects”, the “least square mean ratio point estimate of AUC48h, fed vs fasted” value ([2]; 1.25 mg, 90% CI 65.89-105.71) was 83.45 and the “Predose Level” value ([2]; before 1.25 mg fed dose, on average 41 days after 1.25 mg fasted dose, mean ± SD) was 1.85 pg/mL and 1.85 ± 0.597 pg/mL. It also gave a Cmax [2, 12] of 0.0344 ± 0.0179 ng/mL, an AUC(0-t) [2, 12] of 0.19 ± 0.0972 ng·h/mL and a Tmax ([2]; both sexes, human, plasma, oral, 0.2 mg, single dose 0.2 mg fasted, median (range), read-out: tmax) of 30 min. The Cmax [2, 13] was 0.109 ± 0.0281 ng/mL, the AUC(0-t) [2, 13] was 0.594 ± 0.21 ng·h/mL and the Tmax ([2]; both sexes, human, plasma, oral, 0.6 mg, single dose 0.6 mg fasted, median (range), read-out: tmax) was 30 min. It also gave a Cmax [2, 14] of 0.143 ± 0.0659 ng/mL, an AUC(0-t) [2, 14] of 0.815 ± 0.251 ng·h/mL and a Tmax ([2]; both sexes, human, plasma, oral, 1.25 mg, single dose 1.25 mg fasted, median (range), read-out: tmax) of 45 min. The Cmax [2, 15] was 0.152 ± 0.0764 ng/mL, the AUC(0-t) [2, 15] was 0.659 ± 0.194 ng·h/mL and the Tmax ([2]; both sexes, human, plasma, oral, 1.25 mg, single dose 1.25 mg fed, median (range), read-out: tmax) was 30 min. It also gave a Cmax [2, 16] of 0.309 ± 0.136 ng/mL, an AUC(0-t) [2, 16] of 1.37 ng·h/mL and a Tmax ([2]; both sexes, human, plasma, oral, 1.8 mg, single dose 1.8 mg fasted, median (range), read-out: tmax) of 30 min. The concentration at 41 days ([2]; both sexes, human, plasma, oral, before 1.25 mg fed dose, on average 41 days after 1.25 mg fasted dose, mean ± SD, read-out: Predose Level) was 1.85 pg/mL, the CL renal ([2]; both sexes, human, plasma, oral, single dose 1.25 mg fasted, range 1.86-3.81, read-out: mean renal clearance (converted)) was 42.8 mL/min and the Tmax ([2]; both sexes, human, plasma, po, single oral doses 0.2 to 1.8 mg, read-out: tmax, range over doses) was 30 to 60 min. For the same compound, the half-life ([2]; both sexes, human, plasma, single oral doses 0.2 to 1.8 mg, read-out: median t1/2 term, range over doses) was 5.25 to 36.2 days, the t1/2term ([2]; single dose 0.2 mg fasted, median (range)) was 150 (126-212) h and the CL/F ([2]; single dose 0.2 mg fasted, n = 1) was 149 L/h. For the same compound, the t1/2term ([2]; single dose 0.6 mg fasted, median (range)) was 284 (104-479) h, the CL/F ([2]; single dose 0.6 mg fasted, n = 1) was 244 L/h and the “excreted as unchanged drug in urine within the first 24 hours” value ([2]; single dose 1.25 mg fasted) was “less than 0.2%”. The t1/2term ([2]; single dose 1.25 mg fasted, median (range)) was 448 (372-502) h, the CL/F ([2]; single dose 1.25 mg fasted, n = 3) was 254 L/h and the t1/2term ([2]; single dose 1.25 mg fed, median (range)) was 591 (448-868) h. The t1/2term ([2]; single dose 1.8 mg fasted, median (range)) was 194 (185-205) h, the “dose proportionality of exposure” value ([2]; single oral doses 0.2 to 1.8 mg fasted) was “increased in proportion with the dose; also recorded: dose-proportional pharmacokinetics” and the “overall LEC for cytokine release in vitro” value [3] was 2 nM. For the same compound, the “potency on human versus monkey whole blood cells” value ([3]; most cytokines and chemokines tested) was “more potent on human whole blood cells compared to monkey whole blood cells”, the NOAEL at 6 months ([4]; q2w) was 4.5 mg/kg and the NOAEL at 6 months ([4]; qw) was 3 mg/kg. The AUC(0-t) ([4]; 3.0 mg/kg qw or 4.5 mg/kg q2w, read-out: AUC24h at NOAEL) was 13.2 to 44.8 ng·h/mL, the Cmax ([4]; 3.0 mg/kg qw or 4.5 mg/kg q2w, read-out: Cmax at NOAEL) was 2.56 to 16.4 ng/mL and the CYP3A4 substrate [5] was “substrate”. The IC50 [5] was 590 nM, the “lowest effective concentration (LEC) for activation of human TLR7” value [6] was 70 nM and the bioavailability ([7]; rat, in vivo, po) was 15%. For the same compound, the “drug-related material found in feces” value ([7]; rats) was > 80%, the “drug-related material found in urine” value ([7]; rats) was < 4% and the bioavailability [8] was 1.5%. The “dose without effects on embryofetal development” value [9] was ≤ 30 mg/kg/dose, the P-glycoprotein substrate [10] was “P-glycoprotein substrate” and the in vitro permeability [11] was “low”.
